Source: ChEMBL document CHEMBL5625231, “Targeting autophagy with small-molecule activators for potential therapeutic purposes” (Eur J Med Chem, 2023)

Legend:
[1] = biological target: T1, Serine/threonine-protein kinase ULK1 (Homo sapiens) (UniProt O75385); test: Agonist activity at ULK1 (unknown origin) at 100 nM incubated for 60 mins in presence of ATP by ADP-glo assay relative to control; conditions: filed as agonist
T1 sequence (whole entry): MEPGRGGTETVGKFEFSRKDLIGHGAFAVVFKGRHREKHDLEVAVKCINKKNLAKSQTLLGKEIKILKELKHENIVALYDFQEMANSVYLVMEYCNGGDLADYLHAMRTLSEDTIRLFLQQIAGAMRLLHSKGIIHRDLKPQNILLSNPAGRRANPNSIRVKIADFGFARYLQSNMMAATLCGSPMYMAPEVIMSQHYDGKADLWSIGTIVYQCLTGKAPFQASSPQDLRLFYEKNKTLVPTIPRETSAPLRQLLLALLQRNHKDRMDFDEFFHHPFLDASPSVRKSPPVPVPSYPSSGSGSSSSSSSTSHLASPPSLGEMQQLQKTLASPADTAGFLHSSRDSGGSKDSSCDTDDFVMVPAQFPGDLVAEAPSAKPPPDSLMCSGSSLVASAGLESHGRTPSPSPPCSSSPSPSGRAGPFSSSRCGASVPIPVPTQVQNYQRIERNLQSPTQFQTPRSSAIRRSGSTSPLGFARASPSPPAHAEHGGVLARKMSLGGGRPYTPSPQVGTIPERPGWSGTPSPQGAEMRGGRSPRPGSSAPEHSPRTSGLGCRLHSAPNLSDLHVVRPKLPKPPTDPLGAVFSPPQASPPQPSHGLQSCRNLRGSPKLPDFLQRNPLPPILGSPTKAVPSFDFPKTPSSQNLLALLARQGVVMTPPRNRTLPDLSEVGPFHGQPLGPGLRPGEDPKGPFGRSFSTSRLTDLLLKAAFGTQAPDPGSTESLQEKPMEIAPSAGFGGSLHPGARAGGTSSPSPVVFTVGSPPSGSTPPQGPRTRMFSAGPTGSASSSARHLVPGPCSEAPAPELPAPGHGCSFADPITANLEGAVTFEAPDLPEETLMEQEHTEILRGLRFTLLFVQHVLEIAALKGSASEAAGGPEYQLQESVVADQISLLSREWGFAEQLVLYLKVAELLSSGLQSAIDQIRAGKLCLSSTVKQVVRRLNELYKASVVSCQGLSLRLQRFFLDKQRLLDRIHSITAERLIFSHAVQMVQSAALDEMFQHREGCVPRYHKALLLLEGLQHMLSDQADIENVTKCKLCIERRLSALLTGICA

[2] = test system: MDA-MB-231; test: Antiproliferative activity against human MDA-MB-231 cells assessed reduction in cell viability incubated for 24 hrs by MTT assay; format: functional, cell-based; conditions: MDA-MB-231, 24 h
[3] = biological target: T2, Transcription factor EB (Homo sapiens, UniProt P19484); test: Binding affinity to full length N-terminal his6-tagged human TFEB expressed in Escherichia coli by isothermal titration calorimetry analysis
T2 sequence (P19484 whole entry): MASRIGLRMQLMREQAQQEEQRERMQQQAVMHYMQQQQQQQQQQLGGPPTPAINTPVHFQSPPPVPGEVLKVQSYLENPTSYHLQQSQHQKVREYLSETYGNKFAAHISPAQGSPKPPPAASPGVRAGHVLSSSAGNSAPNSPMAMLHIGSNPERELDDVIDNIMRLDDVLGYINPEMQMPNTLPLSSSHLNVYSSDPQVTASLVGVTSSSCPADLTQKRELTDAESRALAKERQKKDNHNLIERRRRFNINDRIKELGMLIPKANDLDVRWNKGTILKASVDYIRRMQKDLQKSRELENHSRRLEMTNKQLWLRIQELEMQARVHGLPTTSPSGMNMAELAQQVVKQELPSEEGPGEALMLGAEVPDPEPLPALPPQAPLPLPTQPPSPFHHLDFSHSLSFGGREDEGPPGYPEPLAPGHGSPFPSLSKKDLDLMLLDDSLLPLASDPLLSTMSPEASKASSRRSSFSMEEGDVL

[4] = Activation of AMPK in rat hepatocyte using SAMS as substrate incubated for 30 mins in presence of [gamma-33P]ATP; format: cell-based
[5] = biological target: Forkhead box protein O1 (Homo sapiens, UniProt Q12778); test: Activation of FoxO1(unknown origin)
Chain of Forkhead box protein O1 (Q12778 whole entry): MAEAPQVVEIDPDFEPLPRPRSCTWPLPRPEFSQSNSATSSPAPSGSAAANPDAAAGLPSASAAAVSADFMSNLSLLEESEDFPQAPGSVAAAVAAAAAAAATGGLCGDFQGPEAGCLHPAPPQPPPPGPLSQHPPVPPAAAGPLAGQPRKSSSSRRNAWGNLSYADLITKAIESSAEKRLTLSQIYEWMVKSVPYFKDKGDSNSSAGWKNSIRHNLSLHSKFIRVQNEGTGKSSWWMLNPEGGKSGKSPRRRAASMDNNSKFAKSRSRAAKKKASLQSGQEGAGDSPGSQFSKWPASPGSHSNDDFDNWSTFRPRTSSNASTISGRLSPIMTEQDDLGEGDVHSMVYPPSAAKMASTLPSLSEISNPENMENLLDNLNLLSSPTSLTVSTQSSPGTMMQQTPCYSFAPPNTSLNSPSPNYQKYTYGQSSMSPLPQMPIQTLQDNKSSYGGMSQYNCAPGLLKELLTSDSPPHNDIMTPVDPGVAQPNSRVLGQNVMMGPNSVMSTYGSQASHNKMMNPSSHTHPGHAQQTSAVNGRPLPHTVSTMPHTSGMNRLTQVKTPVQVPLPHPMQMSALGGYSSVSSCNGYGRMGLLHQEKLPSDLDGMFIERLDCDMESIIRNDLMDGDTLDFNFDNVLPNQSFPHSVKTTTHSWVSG

Compound: CC(C)(C)OC(=O)N1CCN(CC(OCc2ccc3ccccc3c2)c2ccc(Cl)cc2Cl)CC1 (stereo not drawn)
- Activity [1]: 154%
- IC50 [2]: 20900 nM

Compound: COc1ccccc1/C=C/C(=O)/C=C/c1ccccc1OC
- EC50 [3]: 2170 nM

Compound: CC(C)CN(CC(=O)N1CCN(CC(OCc2ccc3ccccc3c2)c2ccc(Cl)cc2Cl)CC1)CC(C)C (stereo not drawn)
- Activity [1]: 196%

Compound: N#Cc1c(O)c2c(-c3ccc(-c4ccccc4O)cc3)csc2[nH]c1=O
- EC50 [4]: 800 nM

Compound: N#Cc1c(O)c2c(-c3ccccc3)csc2[nH]c1=O
- EC50 [4]: 38000 nM

Compound: Cc1[nH]c2ccccc2c1CCNCc1ccc(/C=C/C(=O)NO)cc1 [PANOBINOSTAT]
- EC50 [5]: 420 nM

Compound: COC(=O)Nc1nc2cc(C(=O)c3ccc(F)cc3)ccc2[nH]1 [FLUBENDAZOLE]
- IC50 [2]: 750 nM
